# Results reported in PMC12528448, “Resistance to CDK7 inhibitors directed by acquired mutation of a conserved residue in cancer cells” (The EMBO Journal, 2025).
# Where “and” joins values, the source holds several entries; their conditions need not be identical. Equal values may be shown once.
# Experiments:
# Type in all cases: cell-based, human
# [1] = system: 22Rv1 homozygous CDK7-D97N CL3 cells; experiment: IncuCyte confluency growth, 22Rv1 homozygous CDK7-D97N CL3
# Method: (§1) To determine the IC50 of drug treatments on growth, cells were seeded in 96-well culture plates. Two days after seeding, the cells were treated with increasing concentrations of drugs and incubated for 4 days. Cell number was determined using the SRB assay (Skehan et al, [1990]), and IC50 values were calculated using non-linear regression curve fitting in GraphPad Prism v10. For all other growth experiments, cells were seeded into 96-well plates, and appropriate drugs were added 2 days after seeding. Cells were then incubated in an IncuCyte Zoom live-cell imager, with cell confluency measured every 6 h. Cell doubling times were determined by non-linear curve fitting (exponential growth equation) in GraphPad Prism v10.
# LNCaP-CDK7-D97N cells = experiment: Growth assay (SRB), LNCaP CDK7-D97N knock-in; details: for % Growth: LNCaP CDK7 D99N
# Method in brief: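 CRISPR-Cas9 knock-in lines were treated with increasing drug concentrations two days after seeding, then grown 4 days. Cell number by SRB staining; IC50 from non-linear regression.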
# 22Rv1 cells = experiment: IncuCyte confluency growth, 22Rv1
# Method: as §1
# 22Rv1-SamR cells = experiment: IncuCyte confluency growth, 22Rv1-SamR; details: for % Confluency: 80nM SY1365, 22Rv1-SamR
# Method: as §1
compound,measurement,setting,value
CN(C)C/C=C/C(=O)Nc1ccc(C(=O)N[C@@]2(C)CCC[C@@H](Nc3ncc(Cl)c(-c4c[nH]c5ccccc45)n3)C2)nc1 [SY-1365],% Confluency,"[1]; 80nM SY1365, CDK7D97N CL3, 0 hours",10.64% and 16.42% and 15.20%
same,% Confluency,"[1]; 80nM SY1365, CDK7D97N CL3, 6 hours",12.17% and 18.19% and 16.81%
same,% Confluency,"[1]; 80nM SY1365, CDK7D97N CL3, 12 hours",12.25% and 16.05% and 14.62%
same,% Confluency,"[1]; 80nM SY1365, CDK7D97N CL3, 18 hours",11.21% and 14.01% and 12.61%
same,% Confluency,"[1]; 80nM SY1365, CDK7D97N CL3, 24 hours",9.91% and 12.68% and 11.43%
same,% Confluency,"[1]; 80nM SY1365, CDK7D97N CL3, 30 hours",9.03% and 11.88% and 10.71%
same,% Confluency,"[1]; 80nM SY1365, CDK7D97N CL3, 36 hours",8.55% and 11.34% and 10.26%
same,% Confluency,"[1]; 80nM SY1365, CDK7D97N CL3, 42 hours",8.35% and 11.02% and 9.94%
same,% Confluency,"[1]; 80nM SY1365, CDK7D97N CL3, 48 hours",8.30% and 10.78% and 9.70%
same,% Confluency,"[1]; 80nM SY1365, CDK7D97N CL3, 54 hours",8.19% and 10.49% and 9.48%
same,% Confluency,"[1]; 80nM SY1365, CDK7D97N CL3, 60 hours",8.11% and 10.33% and 9.30%
same,% Confluency,"[1]; 80nM SY1365, CDK7D97N CL3, 66 hours",8.06% and 10.08% and 9.17%
same,% Confluency,"[1]; 80nM SY1365, CDK7D97N CL3, 72 hours",8.00% and 9.91% and 9.02%
same,% Confluency,"[1]; 80nM SY1365, CDK7D97N CL3, 78 hours",7.89% and 9.76% and 8.94%
same,% Confluency,"[1]; 80nM SY1365, CDK7D97N CL3, 84 hours",7.83% and 9.66% and 8.79%
same,% Confluency,"[1]; 80nM SY1365, CDK7D97N CL3, 90 hours",7.73% and 9.55% and 8.72%
same,% Confluency,"[1]; 80nM SY1365, CDK7D97N CL3, 96 hours",7.64% and 9.51% and 8.65%
same,% Confluency,"[1]; 80nM SY1365, CDK7D97N CL3, 114 hours",7.42% and 9.25% and 8.52%
same,% Confluency,"[1]; 80nM SY1365, CDK7D97N CL3, 120 hours",7.37% and 9.31% and 8.48%
same,% Confluency,"[1]; 80nM SY1365, CDK7D97N CL3, 126 hours",7.26% and 9.19% and 8.45%
same,% Confluency,"[1]; 80nM SY1365, CDK7D97N CL3, 132 hours",7.22% and 9.15% and 8.43%
same,% Confluency,"[1]; 80nM SY1365, CDK7D97N CL3, 138 hours",7.16% and 9.12% and 8.33%
same,% Confluency,"[1]; 80nM SY1365, CDK7D97N CL3, 144 hours",7.11% and 8.98% and 8.32%
same,Growth inhibition over time,"[1]; 22Rv1 homozygous CDK7-D97N clone, IncuCyte confluency, samuraciclib at 1.35 µM",potently growth inhibited
same,% Growth,LNCaP-CDK7-D97N cells; Log10 Conc. (nM) 0.09,63.76% and 49.89%
same,% Growth,LNCaP-CDK7-D97N cells; Log10 Conc. (nM) 0.69,29.39% and 16.32%
same,% Growth,LNCaP-CDK7-D97N cells; Log10 Conc. (nM) 1.29,15.69% and 13.01%
same,% Growth,LNCaP-CDK7-D97N cells; Log10 Conc. (nM) 1.89,-2.84% and -7.62%
same,% Growth,LNCaP-CDK7-D97N cells; Log10 Conc. (nM) 2.49,-7.57% and -9.89%
same,% Growth,LNCaP-CDK7-D97N cells; Log10 Conc. (nM) 3.10,-8.80% and -12.02%
same,% Growth,LNCaP-CDK7-D97N cells; Log10 Conc. (nM) 3.70,-8.97%
same,% Growth,LNCaP-CDK7-D97N cells; Log10 Conc. (nM) -0.52,95.67% and 71.20%
same,% Growth,LNCaP-CDK7-D97N cells; Log10 Conc. (nM) -1.12,99.75% and 96.82%
same,% Growth,LNCaP-CDK7-D97N cells; Log10 Conc. (nM) -1.72,90.05%
same,Sensitivity in growth assays,LNCaP-CDK7-D97N cells; LNCaP-CDK7-D97N vs parental,remaining sensitive
same,% Confluency,"22Rv1 cells; 80nM SY1365, 22Rv1, 0 hours",11.42% and 19.49% and 18.80%
same,% Confluency,"22Rv1 cells; 80nM SY1365, 22Rv1, 6 hours",11.80% and 20.40% and 19.49%
same,% Confluency,"22Rv1 cells; 80nM SY1365, 22Rv1, 12 hours",10.21% and 17.43% and 16.82%
same,% Confluency,"22Rv1 cells; 80nM SY1365, 22Rv1, 18 hours",9.13% and 15.66% and 15.15%
same,% Confluency,"22Rv1 cells; 80nM SY1365, 22Rv1, 24 hours",8.54% and 14.77% and 14.37%
same,% Confluency,"22Rv1 cells; 80nM SY1365, 22Rv1, 30 hours",8.21% and 14.28% and 13.85%
same,% Confluency,"22Rv1 cells; 80nM SY1365, 22Rv1, 36 hours",8.00% and 13.79% and 13.42%
same,% Confluency,"22Rv1 cells; 80nM SY1365, 22Rv1, 42 hours",7.74% and 13.41% and 13.03%
same,% Confluency,"22Rv1 cells; 80nM SY1365, 22Rv1, 48 hours",7.60% and 13.19% and 12.71%
same,% Confluency,"22Rv1 cells; 80nM SY1365, 22Rv1, 54 hours",7.42% and 12.81% and 12.32%
same,% Confluency,"22Rv1 cells; 80nM SY1365, 22Rv1, 60 hours",7.30% and 12.50% and 12.14%
same,% Confluency,"22Rv1 cells; 80nM SY1365, 22Rv1, 66 hours",7.19% and 12.29% and 11.85%
same,% Confluency,"22Rv1 cells; 80nM SY1365, 22Rv1, 72 hours",7.07% and 12.06% and 11.63%
same,% Confluency,"22Rv1 cells; 80nM SY1365, 22Rv1, 78 hours",6.98% and 11.84% and 11.40%
same,% Confluency,"22Rv1 cells; 80nM SY1365, 22Rv1, 84 hours",6.88% and 11.65% and 11.26%
same,% Confluency,"22Rv1 cells; 80nM SY1365, 22Rv1, 90 hours",6.85% and 11.59% and 11.21%
same,% Confluency,"22Rv1 cells; 80nM SY1365, 22Rv1, 96 hours",6.73% and 11.35% and 10.98%
same,% Confluency,"22Rv1 cells; 80nM SY1365, 22Rv1, 114 hours",6.60% and 11.05% and 10.79%
same,% Confluency,"22Rv1 cells; 80nM SY1365, 22Rv1, 120 hours",6.58% and 10.92% and 10.70%
same,% Confluency,"22Rv1 cells; 80nM SY1365, 22Rv1, 126 hours",6.55% and 10.80% and 10.69%
same,% Confluency,"22Rv1 cells; 80nM SY1365, 22Rv1, 132 hours",6.55% and 10.73% and 10.58%
same,% Confluency,"22Rv1 cells; 80nM SY1365, 22Rv1, 138 hours",6.46% and 10.70% and 10.57%
same,% Confluency,"22Rv1 cells; 80nM SY1365, 22Rv1, 144 hours",6.45% and 10.59% and 10.48%
same,Growth inhibition over time,"22Rv1 cells; 22Rv1, IncuCyte confluency",potently growth inhibited
same,% Confluency,22Rv1-SamR cells; 0 hours,10.34% and 15.03% and 14.87%
same,% Confluency,22Rv1-SamR cells; 6 hours,9.52% and 13.73% and 13.78%
same,% Confluency,22Rv1-SamR cells; 12 hours,7.18% and 10.14% and 10.08%
same,% Confluency,22Rv1-SamR cells; 18 hours,6.46% and 9.11% and 8.97%
same,% Confluency,22Rv1-SamR cells; 24 hours,6.42% and 8.94% and 8.84%
same,% Confluency,22Rv1-SamR cells; 30 hours,6.40% and 8.87% and 8.89%
same,% Confluency,22Rv1-SamR cells; 36 hours,6.41% and 8.74% and 8.80%
same,% Confluency,22Rv1-SamR cells; 42 hours,6.26% and 8.57% and 8.60%
same,% Confluency,22Rv1-SamR cells; 48 hours,6.09% and 8.40% and 8.37%
same,% Confluency,22Rv1-SamR cells; 54 hours,5.90% and 8.18% and 8.12%
same,% Confluency,22Rv1-SamR cells; 60 hours,5.76% and 7.96% and 7.93%
same,% Confluency,22Rv1-SamR cells; 66 hours,5.65% and 7.83% and 7.79%
same,% Confluency,22Rv1-SamR cells; 72 hours,5.56% and 7.64% and 7.59%
same,% Confluency,22Rv1-SamR cells; 78 hours,5.44% and 7.53%
same,% Confluency,22Rv1-SamR cells; 84 hours,5.34% and 7.42% and 7.40%
same,% Confluency,22Rv1-SamR cells; 90 hours,5.24% and 7.29% and 7.32%
same,% Confluency,22Rv1-SamR cells; 96 hours,5.21% and 7.20% and 7.25%
same,% Confluency,22Rv1-SamR cells; 114 hours,5.05% and 7.01% and 7.04%
same,% Confluency,22Rv1-SamR cells; 120 hours,5.01% and 6.93% and 6.98%
same,% Confluency,22Rv1-SamR cells; 126 hours,4.98% and 6.86% and 6.94%
same,% Confluency,22Rv1-SamR cells; 132 hours,4.95% and 6.82% and 6.86%
same,% Confluency,22Rv1-SamR cells; 138 hours,4.94% and 6.80% and 6.88%
same,% Confluency,22Rv1-SamR cells; 144 hours,4.87% and 6.78% and 6.83%
same,Growth inhibition over time,"22Rv1-SamR cells; 22Rv1-SamR, IncuCyte confluency, samuraciclib at 1.35 µM",potently growth inhibited
